Data taken from patent US20140213648A1, “METHODS OF INCREASING EPA BLOOD LEVELS” (priority 2012, published 2014).

Experiment: 12-week placebo-controlled study: plasma fatty acid concentrations, ratios and proportions (GC/FID)
Assay type: in vivo, human
Settings: for AA plasma concentration, change from baseline (LS mean (SE)) / AA plasma concentration, end-of-treatment (mean) / DHA plasma concentration, change from baseline (LS mean (SE)) / DHA plasma concentration, end-of-treatment (mean) / Linoleic plasma concentration, change from baseline (LS mean (SE)) / Linoleic plasma concentration, end-of-treatment (mean) / Oleic plasma concentration, change from baseline (LS mean (SE)) / Oleic plasma concentration, end-of-treatment (mean) / Palmitic plasma concentration, change from baseline (LS mean (SE)) / Palmitic plasma concentration, end-of-treatment (mean) / Proportion of monounsaturated fatty acids to total fatty acids in plasma, change from baseline (LS mean (SE)) / Proportion of monounsaturated fatty acids to total fatty acids in plasma, end-of-treatment (mean (SD)) / Proportion of saturated fatty acids to total fatty acids in plasma, change from baseline (LS mean (SE)) / Proportion of saturated fatty acids to total fatty acids in plasma, end-of-treatment (mean (SD)) / Proportion of total omega-3 fatty acids to total fatty acids in plasma, change from baseline (LS mean (SE)) / Proportion of total omega-3 fatty acids to total fatty acids in plasma, end-of-treatment (mean (SD)) / Proportion of total omega-6 fatty acids to total fatty acids in plasma, change from baseline (LS mean (SE)) / Proportion of total omega-6 fatty acids to total fatty acids in plasma, end-of-treatment (mean (SD)) / Ratio of AA/EPA in plasma, change from baseline (LS mean (SE)) / Ratio of AA/EPA in plasma, end-of-treatment (mean) / Ratio of n-3/n-6 FA in plasma, change from baseline (LS mean (SE)) / Ratio of n-3/n-6 FA in plasma, end-of-treatment (mean) / Stearic plasma concentration, change from baseline (LS mean (SE)) / Stearic plasma concentration, end-of-treatment (mean): week 12
Description: A multi-center, placebo-controlled randomized, double-blind, 12-week study with an open-label extension is performed to evaluate the efficacy and safety of AMR101 in patients with fasting triglyceride levels ≧500 mg/dL. The primary objective of the study is to determine the efficacy of AMR101 2 g daily and 4 g daily, compared to placebo, in lowering fasting TG levels in patients with fasting TG levels ≧500 mg/dL and ≦1500 mg/dL (≧5.65 mmol/L and ≦16.94 mmol/L).
Eligible patients will be randomly assigned at Visit 4 (Week 0) to receive orally AMR101 2 g daily, AMR101 4 g daily, or placebo for the 12-week double-blind treatment period. AMR101 is provided in 1 g liquid-filled, oblong, gelatin capsules. The matching placebo capsule is filled with light liquid paraffin and contains 0 g of AMR101. During the double-blind treatment period, patients will take 2 capsules (AMR101 or matching placebo) in the morning and 2 in the evening for a total of 4 capsules per day. Patients in the AMR101 2 g/day treatment group will receive 1 AMR101 1 g capsule and 1 matching placebo capsule in the morning and in the evening. Patients in the AMR101 4 g/day treatment group will receive 2 AMR101 1 g capsules in the morning and evening.
Lipids were extracted from plasma and RBC suspensions and converted into fatty acid methyl esters for analysis using a standard validated gas chromatography/flame ionization detection method. Fatty acid parameters were compared between EPA treatment groups and placebo using an ANCOVA model with treatment, gender, type of statin therapy, and presence of diabetes as factors, and the baseline parameter value as a covariate. LSMs, SEs, and 2-tailed 95% confidence intervals for each treatment group and for each comparison were determined.

[1] = 2 g/day vs placebo, week 12, P <0.0001
[2] = 4 g/day vs placebo, week 12, P <0.0001

With `CC/C=C\C/C=C\C/C=C\C/C=C\C/C=C\CCCC(=O)OCC` [IPE, Icosapent ethyl] the “Dose dependence of EPA concentration in plasma (in words)” value (2 g/day or 4 g/day, 12 weeks) was “significantly increased EPA concentrations in a linear, dose-dependent fashion”, the “Proportion of monounsaturated fatty acids to total fatty acids in plasma, mean placebo-adjusted percent change from baseline” value (2 g/day vs placebo, week 12, P 0.0009) was −7.4% and the “Palmitic plasma concentration, mean placebo-adjusted percent change from baseline” value (2 g/day vs placebo, week 12, P 0.0011) was −23.9%. The “Oleic plasma concentration, mean placebo-adjusted percent change from baseline” value (2 g/day vs placebo, week 12, P 0.0023) was −23.8%, the “Stearic plasma concentration, mean placebo-adjusted percent change from baseline” value (2 g/day vs placebo, week 12, P 0.0040) was −20.7% and the “Linoleic plasma concentration, mean placebo-adjusted percent change from baseline” value (2 g/day vs placebo, week 12, P 0.0136) was −15.2%. For the same molecule, the “Proportion of total omega-6 fatty acids to total fatty acids in plasma, mean placebo-adjusted percent change from baseline” value (2 g/day vs placebo, week 12, P 0.3044) was 3.2%, the “DHA plasma concentration, mean placebo-adjusted percent change from baseline” value (2 g/day vs placebo, week 12, P 0.7217) was −2.3% and the “Proportion of saturated fatty acids to total fatty acids in plasma, mean placebo-adjusted percent change from baseline” value (2 g/day vs placebo, week 12, P 0.8076) was −0.4%. The “AA plasma concentration, mean placebo-adjusted percent change from baseline” value [1] was −16.4%, the “Proportion of total omega-3 fatty acids to total fatty acids in plasma, mean placebo-adjusted percent change from baseline” value [1] was 68.4% and the “Ratio of AA/EPA in plasma, mean placebo-adjusted percent change from baseline” value [1] was −88.4%. The “Ratio of n-3/n-6 FA in plasma, mean placebo-adjusted percent change from baseline” value [1] was 76.8%, the “AA plasma concentration, change from baseline (LS mean (SE))” value (2 g/day) was −36.7 (10.6) and the “AA plasma concentration, end-of-treatment (mean)” value (2 g/day) was 327.3. The “DHA plasma concentration, change from baseline (LS mean (SE))” value (2 g/day) was −13.1 (6.2), the “DHA plasma concentration, end-of-treatment (mean)” value (2 g/day) was 104.8 and the “Linoleic plasma concentration, change from baseline (LS mean (SE))” value (2 g/day) was −227 (121.4). For the same molecule, the “Linoleic plasma concentration, end-of-treatment (mean)” value (2 g/day) was 1981, the “Oleic plasma concentration, change from baseline (LS mean (SE))” value (2 g/day) was −414 (142.9) and the “Oleic plasma concentration, end-of-treatment (mean)” value (2 g/day) was 2018. The “Palmitic plasma concentration, change from baseline (LS mean (SE))” value (2 g/day) was −353 (126.9), the “Palmitic plasma concentration, end-of-treatment (mean)” value (2 g/day) was 2015 and the “Proportion of monounsaturated fatty acids to total fatty acids in plasma, change from baseline (LS mean (SE))” value (2 g/day) was −1.4 (0.5) mol %. The “Proportion of monounsaturated fatty acids to total fatty acids in plasma, end-of-treatment (mean (SD))” value (2 g/day) was 29.5 (4.9) mol %, the “Proportion of saturated fatty acids to total fatty acids in plasma, change from baseline (LS mean (SE))” value (2 g/day) was −0.3 (0.5) mol % and the “Proportion of saturated fatty acids to total fatty acids in plasma, end-of-treatment (mean (SD))” value (2 g/day) was 35.8 (3.7) mol %. The “Proportion of total omega-3 fatty acids to total fatty acids in plasma, change from baseline (LS mean (SE))” value (2 g/day) was 2.0 (0.2) mol %, the “Proportion of total omega-3 fatty acids to total fatty acids in plasma, end-of-treatment (mean (SD))” value (2 g/day) was 4.8 (1.3) mol % and the “Proportion of total omega-6 fatty acids to total fatty acids in plasma, change from baseline (LS mean (SE))” value (2 g/day) was −0.2 (0.7) mol %. For the same molecule, the “Proportion of total omega-6 fatty acids to total fatty acids in plasma, end-of-treatment (mean (SD))” value (2 g/day) was 29.8 (6.8) mol %, the “Ratio of AA/EPA in plasma, change from baseline (LS mean (SE))” value (2 g/day) was −9.6 (0.5) and the “Ratio of AA/EPA in plasma, end-of-treatment (mean)” value (2 g/day) was 2.3. The “Ratio of n-3/n-6 FA in plasma, change from baseline (LS mean (SE))” value (2 g/day) was 0.07 (0.009), the “Ratio of n-3/n-6 FA in plasma, end-of-treatment (mean)” value (2 g/day) was 0.17 and the “Stearic plasma concentration, change from baseline (LS mean (SE))” value (2 g/day) was −57.8 (33.3). For the same molecule, the “Stearic plasma concentration, end-of-treatment (mean)” value (2 g/day) was 541.5, the “Oleic plasma concentration, mean placebo-adjusted percent change from baseline” value (4 g/day vs placebo, week 12, P 0.0001) was −31.9% and the “Stearic plasma concentration, mean placebo-adjusted percent change from baseline” value (4 g/day vs placebo, week 12, P 0.0002) was −28.4%. The “Linoleic plasma concentration, mean placebo-adjusted percent change from baseline” value (4 g/day vs placebo, week 12, P 0.0003) was −23.7%, the “Proportion of monounsaturated fatty acids to total fatty acids in plasma, mean placebo-adjusted percent change from baseline” value (4 g/day vs placebo, week 12, P 0.0008) was −7.7% and the “Proportion of saturated fatty acids to total fatty acids in plasma, mean placebo-adjusted percent change from baseline” value (4 g/day vs placebo, week 12, P 0.1049) was −2.8%. For the same molecule, the “DHA plasma concentration, mean placebo-adjusted percent change from baseline” value (4 g/day vs placebo, week 12, P 0.7115) was 2.4%, the “Proportion of total omega-6 fatty acids to total fatty acids in plasma, mean placebo-adjusted percent change from baseline” value (4 g/day vs placebo, week 12, P 0.8846) was 0.5% and the “AA plasma concentration, mean placebo-adjusted percent change from baseline” value [2] was −26.8%. For the same molecule, the “Palmitic plasma concentration, mean placebo-adjusted percent change from baseline” value [2] was −34.4%, the “Proportion of total omega-3 fatty acids to total fatty acids in plasma, mean placebo-adjusted percent change from baseline” value [2] was 132.7% and the “Ratio of AA/EPA in plasma, mean placebo-adjusted percent change from baseline” value [2] was −99.4%. For the same molecule, the “Ratio of n-3/n-6 FA in plasma, mean placebo-adjusted percent change from baseline” value [2] was 145.8%, the “AA plasma concentration, change from baseline (LS mean (SE))” value (4 g/day) was −76.2 (11.3) and the “AA plasma concentration, end-of-treatment (mean)” value (4 g/day) was 280.3. For the same molecule, the “DHA plasma concentration, change from baseline (LS mean (SE))” value (4 g/day) was −4.5 (6.6), the “DHA plasma concentration, end-of-treatment (mean)” value (4 g/day) was 118.1 and the “Linoleic plasma concentration, change from baseline (LS mean (SE))” value (4 g/day) was −309 (128.1). For the same molecule, the “Linoleic plasma concentration, end-of-treatment (mean)” value (4 g/day) was 1882, the “Oleic plasma concentration, change from baseline (LS mean (SE))” value (4 g/day) was −546 (154.0) and the “Oleic plasma concentration, end-of-treatment (mean)” value (4 g/day) was 1885. The “Palmitic plasma concentration, change from baseline (LS mean (SE))” value (4 g/day) was −560 (138.1), the “Palmitic plasma concentration, end-of-treatment (mean)” value (4 g/day) was 1789 and the “Proportion of monounsaturated fatty acids to total fatty acids in plasma, change from baseline (LS mean (SE))” value (4 g/day) was −1.7 (0.5) mol %. For the same molecule, the “Proportion of monounsaturated fatty acids to total fatty acids in plasma, end-of-treatment (mean (SD))” value (4 g/day) was 28.7 (4.0) mol %, the “Proportion of saturated fatty acids to total fatty acids in plasma, change from baseline (LS mean (SE))” value (4 g/day) was −1.2 (0.5) mol % and the “Proportion of saturated fatty acids to total fatty acids in plasma, end-of-treatment (mean (SD))” value (4 g/day) was 34.8 (3.5) mol %. For the same molecule, the “Proportion of total omega-3 fatty acids to total fatty acids in plasma, change from baseline (LS mean (SE))” value (4 g/day) was 3.8 (0.2) mol %, the “Proportion of total omega-3 fatty acids to total fatty acids in plasma, end-of-treatment (mean (SD))” value (4 g/day) was 6.7 (1.9) mol % and the “Proportion of total omega-6 fatty acids to total fatty acids in plasma, change from baseline (LS mean (SE))” value (4 g/day) was −0.9 (0.7) mol %. For the same molecule, the “Proportion of total omega-6 fatty acids to total fatty acids in plasma, end-of-treatment (mean (SD))” value (4 g/day) was 29.8 (6.2) mol %, the “Ratio of AA/EPA in plasma, change from baseline (LS mean (SE))” value (4 g/day) was −10.8 (0.5) and the “Ratio of AA/EPA in plasma, end-of-treatment (mean)” value (4 g/day) was 1.2. The “Ratio of n-3/n-6 FA in plasma, change from baseline (LS mean (SE))” value (4 g/day) was 0.4 (0.009), the “Ratio of n-3/n-6 FA in plasma, end-of-treatment (mean)” value (4 g/day) was 0.24 and the “Stearic plasma concentration, change from baseline (LS mean (SE))” value (4 g/day) was −101 (35.4). For the same molecule, the “Stearic plasma concentration, end-of-treatment (mean)” value (4 g/day) was 500.3.
